Values after ≈ are worked out from the molar mass of the structure shown. Where two headings read alike, the source gives them in different places. Peptide text beside a SMILES is read from it.
Columns and labels:
MRSA T144 [1] = experiment: microbe, parasite or virus in culture; format: cell-based, Staphylococcus aureus; conditions: T144
Procedure: (§1) An antimicrobial activity study was conducted on all peptides against a panel of laboratory bacteria, including ATCC source and clinical isolates with resistance determinants. According to CLSI2021 guidelines, we tested the minimum inhibitory concentrations (MICs) of peptides using standard broth micro-dilutions. Briefly, bacteria grown to exponential phase were diluted in 1:1000 to MHB, subsequently, equivalent amounts of bacterial suspension (1.5 × 10^6 CFUs/mL) were mixed with different concentrations of peptides in a sterilized 96-well microtiter plate (Corning).

S. aureus ATCC 29213 = experiment: microbe, parasite or virus in culture; format: cell-based, Staphylococcus aureus; conditions: ATCC 29213
Procedure: as §1

MRSA 1518 = experiment: microbe, parasite or virus in culture; format: cell-based, Staphylococcus aureus; conditions: 1518
Procedure: as §1

MRSA 1530 = experiment: microbe, parasite or virus in culture; format: cell-based, Staphylococcus aureus; conditions: 1530
Procedure: as §1

E. faecalis 1F-1 = experiment: microbe, parasite or virus in culture; format: cell-based; conditions: 1F-1
Procedure: as §1

[2] = system: E. faecalis A4 (VRE, VanA); experiment: microbe, parasite or virus in culture; format: cell-based; conditions: A4 (VRE, VanA)
Procedure: as §1

[3] = system: S. enteritidis ATCC 13076; experiment: microbe, parasite or virus in culture; format: cell-based; conditions: ATCC 13076
Procedure: as §1

E. faecium 5F-10 = experiment: microbe, parasite or virus in culture; format: cell-based, Enterococcus faecium; conditions: 5F-10
Procedure: as §1

E. coli ATCC 25922 = experiment: microbe, parasite or virus in culture; format: cell-based, Escherichia coli; conditions: ATCC 25922
Procedure: as §1

[4] = system: E. coli B2 (blaNDM-5 + mcr-1); experiment: microbe, parasite or virus in culture; format: cell-based, Escherichia coli; conditions: B2 (blaNDM-5 + mcr-1)
Procedure: as §1

E. coli 1F28 (tet(X4)) = experiment: microbe, parasite or virus in culture; format: cell-based, Escherichia coli; conditions: 1F28 (tet(X4))
Procedure: as §1

E. coli B3-1 (tet(X4)) = experiment: microbe, parasite or virus in culture; format: cell-based, Escherichia coli; conditions: B3-1 (tet(X4))
Procedure: as §1

E. coli C3 (blaNDM-1) = experiment: microbe, parasite or virus in culture; format: cell-based, Escherichia coli; conditions: C3 (blaNDM-1)
Procedure: as §1

E. coli CP131 (mcr-3) = experiment: microbe, parasite or virus in culture; format: cell-based, Escherichia coli; conditions: CP131 (mcr-3)
Procedure: as §1

E. coli G6 (blaNDM-5) = experiment: microbe, parasite or virus in culture; format: cell-based, Escherichia coli; conditions: G6 (blaNDM-5)
Procedure: as §1

E. coli G92 (mcr-1) = experiment: microbe, parasite or virus in culture; format: cell-based, Escherichia coli; conditions: G92 (mcr-1)
Procedure: as §1

A. baumannii ATCC 19609 = experiment: microbe, parasite or virus in culture; format: cell-based, Acinetobacter baumannii; conditions: ATCC 19609
Procedure: as §1

[5] = system: A. baumannii C222 (tet(X6)); experiment: microbe, parasite or virus in culture; format: cell-based, Acinetobacter baumannii; conditions: C222 (tet(X6))
Procedure: as §1

P. aeruginosa PA14 = experiment: microbe, parasite or virus in culture; format: cell-based, Pseudomonas aeruginosa; conditions: PA14
Procedure: as §1

[6] = system: K. pneumoniae ATCC 700603; experiment: microbe, parasite or virus in culture; format: cell-based, Klebsiella pneumoniae; conditions: ATCC 700603
Procedure: as §1

[7] = system: K. pneumoniae D120 (mcr-8); experiment: microbe, parasite or virus in culture; format: cell-based, Klebsiella pneumoniae; conditions: D120 (mcr-8)
Procedure: as §1

[8] = system: P. cibarius HNCF44W (blaNDM-1 + tet(X6)); experiment: organism not typed; format: cell-based
Procedure: as §1

MRSA T144 [9] = format: cell-based, Staphylococcus aureus
Procedure: (§2) MRSA T144 and E. coli B2 in the exponential growth phase were incubated with LI14 peptide supplemented with 10 mM Na^+, K^+, Mg^2+, 10% Dulbecco’s modified Eagle medium (DMEM), and 10% fetal bovine serum (FBS) for 16–18 h. The stability of LI14 was evaluated by the change of its antibacterial activity under different conditions.
(§3) LI14 were preincubated for 1 h at various temperatures (40–121 °C), pH (2–12), and proteases (pepsin, trypsin, and papain, final concentration 1 mg/mL). […] Following the incubation with the proteases, the leftover protease was precipitated with acetonitrile and removed by centrifugation at 3000 × g, followed by a MIC test.
(§4) Supplementary Table 4 Thermal, pH, salts and protease stability of AMPs against
(§5) MRSA T144 and E. coli B2 (MIC, μg/mL).
(§6) Treatment MRSA T144 E. coli B2

E. coli B2 = format: cell-based, Escherichia coli
Procedure: as §2, §3, §4, §5, §6

CC[C@H](C)[C@H](NC(=O)[C@H](CCCNC(=N)N)NC(=O)[C@H](CS)NC(=O)[C@H](CC(C)C)NC(=O)[C@H](CCCCN)NC(=O)[C@H](CCCCN)NC(=O)[C@H](CC(C)C)NC(=O)[C@@H](NC(=O)[C@H](CCCNC(=N)N)NC(=O)[C@H](CS)NC(=O)[C@H](CC(C)C)NC(=O)[C@H](CCCCN)NC(=O)[C@H](CCCCN)NC(=O)[C@H](CC(C)C)NC(=O)[C@@H](NC(=O)[C@H](CCCNC(=N)N)NC(=O)[C@H](CS)NC(=O)[C@H](CC(C)C)NC(=O)[C@H](CCCCN)NC(=O)[C@H](CCCCN)NC(=O)[C@@H](N)CC(C)C)[C@@H](C)CC)[C@@H](C)CC)C(N)=O [LI21] (H-LKKLCRILKKLCRILKKLCRI-NH2; N-terminus and C-terminus assumed)
MIC (MRSA T144 [1]): 32 µg/mL (≈ 12.4 µM) | MIC (S. aureus ATCC 29213): 32 µg/mL (≈ 12.4 µM) | MIC (MRSA 1518): 32 µg/mL (≈ 12.4 µM) | MIC (MRSA 1530): 32 µg/mL (≈ 12.4 µM) | MIC (E. faecalis 1F-1): 64 µg/mL (≈ 24.8 µM) | MIC [2]: 32 µg/mL (≈ 12.4 µM) | MIC [3]: 32 µg/mL (≈ 12.4 µM) | MIC (E. faecium 5F-10): 64 µg/mL (≈ 24.8 µM) | MIC (E. coli ATCC 25922): 64 µg/mL (≈ 24.8 µM) | MIC [4]: 64 µg/mL | MIC (E. coli 1F28 (tet(X4))): 32 µg/mL (≈ 12.4 µM) | MIC (E. coli B3-1 (tet(X4))): 32 µg/mL (≈ 12.4 µM) | MIC (E. coli C3 (blaNDM-1)): 32 µg/mL (≈ 12.4 µM) | MIC (E. coli CP131 (mcr-3)): 16 µg/mL (≈ 6.2 µM) | MIC (E. coli G6 (blaNDM-5)): 16 µg/mL (≈ 6.2 µM) | MIC (E. coli G92 (mcr-1)): 32 µg/mL (≈ 12.4 µM) | MIC (A. baumannii ATCC 19609): 32 µg/mL (≈ 12.4 µM) | MIC [5]: 32 µg/mL (≈ 12.4 µM) | MIC (P. aeruginosa PA14): 32 µg/mL (≈ 12.4 µM) | MIC [6]: 64 µg/mL (≈ 24.8 µM) | MIC [7]: 32 µg/mL (≈ 12.4 µM) | MIC [8]: 32 µg/mL (≈ 12.4 µM) | MIC (MRSA T144 [9]; T144): 64 µg/mL (≈ 24.8 µM) | MIC (MRSA T144 [9]; T144, 1 h): > 128 µg/mL | MIC (E. coli B2; B2): 32 µg/mL (≈ 12.4 µM) | MIC (E. coli B2; B2, 1 h): > 128 µg/mL | MIC (E. coli B2; E. coli B2, MgCl2 10 mM): 64 µg/mL (≈ 24.8 µM)
